Reference: US20210349097A1, “BIOMARKERS FOR A COMBINATION THERAPY COMPRISING LENVATINIB AND EVEROLIMUS” (Eisai R&D Management Co., Ltd., priority 2018, published 2021)

What was measured:
Assay type in all cases: in vivo, human
[1] = test system: metastatic renal cell carcinoma (RCC); experiment: Phase 2 study in metastatic RCC after prior VEGF-targeted therapy: progression free survival (PFS) by baseline serum biomarker / composite biomarker score
Method: (§1) A Phase 2 study for lenvatinib was performed in patients with metastatic renal cell carcinoma (RCC) following a VEGF-targeted therapy. Patients having metastatic renal cell carcinoma after a prior VEGF-targeted therapy received lenvatinib mesylate (“lenvatinib”), everolimus, or the combination thereof until disease progression or development of unmanageable toxicities. A total of 153 subjects were randomized into 3 treatment arms to receive:
(§2) 1) 18 mg/day lenvatinib (as lenvatinib free base; the same shall apply hereinafter)+5 mg/day everolimus (Arm A [LEN/EVE treatment arm], N=51),
(§3) 2) lenvatinib 24 mg/day (Arm B [LEN treatment arm], N=52), or
(§4) 3) everolimus 10 mg/day (Arm C [EVE treatment arm], N=50).
(§5) Each Cycle consisted of 4 weeks (28 days)
(§6) Blood samples for biomarker assessments were collected from subjects in all 3 treatment arms (LEN/EVE, N=49; LEN, N=51; EVE, N=47; Total, N=147) at Cycle 1 Day 1(pre-treatment). In samples from 145 subjects (94.8% of all Intention to Treat [ITT] population; LEN/EVE, N=49; LEN, N=50; EVE, N=46), 40 candidate biomarkers shown in Table 1 were assayed using 19 preconfigured CustomMAP immunoassay panels and measured by a multiplex flow cytometry-based platform by the manufacturer (Multi-Analyte Profile (MAP)) at a Myriad RBM (Austin, Tex., USA).
For baseline levels of each serum biomarker, correlation analyses with PFS were performed using univariate Cox regression in each of the 3 arms. Hazard ratio (HR) for biomarkers with continuous values was calculated as a ratio of hazards between measured values with one standard deviation (HR per standard deviation). Baseline serum IL-18BP levels were associated with PFS in the LEN/EVE arm (Table 2). In the following tables, FDR refers to False Discovery Rate, MST refers to Median Survival Time and CI refers to Confidence Interval.
For IL-18BP, dichotomized analysis was performed to correlate baseline serum biomarker levels in subjects with low and high levels with PFS in the 3 arms. The cutoff points were median, first tertile, second tertile, first quartile or third quartile. Association between the groups and PFS was explored using univariate Cox regression and the log-rank test with each of the selected cutoff points. At the second tertile cutoff point, median PFS for the high IL-18BP group (5.6 months) was shorter than that for the low group (17.5 months) in the LEN/EVE arm (Table 3).
(§7) For each biomarker integrated into the CBS, a value of 1 was assigned if the respective baseline biomarker level fell within the range determined to associate with longer survival in the single biomarker cutoff analysis; a value of 0 was assigned if the respective baseline biomarker level was categorized in the range associated with shorter survival. The sum of the individual values (0 vs. 1 for each of the 5 biomarkers) was computed as a CBS for each subject (range 0-5). Patients were then dichotomized per CBS as low and high groups (0 vs. 1-5, 0-1 vs. 2-5, 0-2 vs. 3-5, 0-3 vs. 4-5, and 0-4 vs. 5). Associations between the groups and PFS were explored using univariate Cox regression and the log-rank test with each of the selected dichotomization points in each treatment arm. Interaction P values were estimated by multivariate Cox regression analysis with treatment arm, baseline level and PFS. Associations between the groups and objective response rate (ORR) were also explored using Fisher's exact test.
(§8) For each biomarker integrated into the CBS, a value of 1 was assigned if the respective baseline biomarker level fell within the range determined to associate with longer survival in the single biomarker cutoff analysis; a value of 0 was assigned if the respective baseline biomarker level was categorized in the range associated with shorter survival. The sum of the individual values (0 vs. 1 for each of the 2 biomarkers) was computed as a CBS for each subject (range 0-2). […]

[2] = test system: metastatic renal cell carcinoma (RCC); experiment: Phase 2 study in metastatic RCC after prior VEGF-targeted therapy: overall survival (OS) by baseline serum biomarker / composite biomarker score
Method: as §1, §2, §3, §4, §5, §6
For baseline levels of each serum biomarker, correlation analyses with OS were performed using univariate Cox regression in each of the 3 arms. Hazard ratio (HR) for biomarkers with continuous values was calculated as a ratio of hazards between measured values with one standard deviation (HR per standard deviation). Baseline serum FGF-21, ICAM-1, and M-CSF levels were associated with OS in the LEN/EVE arm (Table 4).
For FGF-21, ICAM-1, and M-CSF, dichotomized analyses were performed to correlate baseline serum biomarker levels in subjects with low and high levels with OS in the 3 arms using univariate Cox regression and the log-rank test at median cutoff point. Low baseline levels of FGF-21, ICAM-1, and M-CSF were associated with longer OS in the LEN/EVE arm (Table 5).
as §7, with “the range previously determined to” for “the range determined to”, “longer survival on single biomarker” for “longer survival in the single biomarker”, “subject (range 0-5; high=favorable survival). Patients were” for “subject (range 0-5). Patients were”, “groups and OS were explored” for “groups and PFS were explored”, “level and OS. Associations between” for “level and PFS. Associations between”
as §7, with “2” for “5”, “0-2).” for “0-5).”, “1-2 and” for “1-5,”, “2).” for “2-5, 0-2 vs. 3-5, 0-3 vs. 4-5, and 0-4 vs. 5).”, “OS” for “PFS”, “Interaction P values were estimated by multivariate Cox regression analysis with treatment arm, baseline level and PFS. Associations between the groups and objective response rate (ORR) were also explored using Fisher's exact test.” left out

[3] = test system: metastatic renal cell carcinoma (RCC); experiment: Phase 2 study in metastatic RCC after prior VEGF-targeted therapy: objective response rate (ORR) by composite biomarker score
Method: as §1, §2, §3, §4, §5, §6, §7
as §7, with “the range previously determined to” for “the range determined to”, “longer survival on single biomarker” for “longer survival in the single biomarker”, “subject (range 0-5; high=favorable survival). Patients were” for “subject (range 0-5). Patients were”, “groups and OS were explored” for “groups and PFS were explored”, “level and OS. Associations between” for “level and PFS. Associations between”
as §8

[4] = 5-marker CBS (HGF, MIG, IL-18BP, IL-18, ANG-2)
[5] = 5-marker CBS (TIMP-1, M-CSF, IL-18BP, ANG-2, VEGF-A)

Compound: CO[C@H]1C[C@@H]2CC[C@@H](C)[C@@](O)(O2)C(=O)C(=O)N2CCCC[C@H]2C(=O)O[C@H]([C@H](C)C[C@@H]2CC[C@@H](OCCO)[C@H](OC)C2)CC(=O)[C@H](C)/C=C(\C)[C@@H](O)[C@@H](OC)C(=O)[C@H](C)C[C@H](C)/C=C/C=C/C=C/1C [EVE, (1R,9S,12S,15R,16E,18R,19R,21R,23S,24E,26E,28E,30S,32S,35R)-1,18-dihydroxy-12-{(1R)-2-[(1S,3R,4R)-4-(2-hydroxyethoxy)-3-methoxycyclohexyl]-1-methylethyl}-19,30-dimethoxy-15,17,21,23,29,35-hexamethyl-11,36-dioxa-4-aza-tricyclo[30.3.1.0^4,9]hexatriaconta-16,24,26,28-tetraene-2,3,10,14,20-pentaone]
- mPFS, CBS High (1-2) ([1]; 2-marker CBS (IL-18BP, ANG-2)): 5.5 mo
- mPFS, CBS Low (0) ([1]; 2-marker CBS (IL-18BP, ANG-2)): 3.0 mo
- mPFS, high CBS score (1-2) ([1]; 2-marker CBS (IL-18BP, ANG-2)): 5.5 months
- mPFS, CBS High (3-5) [1, 4]: 3.6 mo
- mPFS, CBS Low (0-2) [1, 4]: 5.5 mo
- mPFS, high CBS score (3-5) [1, 4]: 3.6 months
- MST (median PFS), IL-18BP High Group ([1]; baseline serum IL-18BP high, cutoff quantile 0.67 (second tertile)): 3.5 months
- MST (median PFS), IL-18BP Low Group ([1]; baseline serum IL-18BP low, cutoff quantile 0.67 (second tertile)): 5.5 months
- HR (95% CI) PFS, IL-18BP low and high groups ([1]; cutoff quantile 0.67 (second tertile), univariate Cox regression): 1.194
- HR (95% CI), baseline IL-18BP with PFS ([1]; univariate Cox regression, HR per standard deviation of baseline serum IL-18BP): 1.207
- HR OS, high CBS (1-2) vs low CBS (0) within arm ([2]; 2-marker CBS (IL-18BP, ANG-2)): 0.461
- mOS, CBS High (1-2) ([2]; 2-marker CBS (IL-18BP, ANG-2)): 17.5 mo
- mOS, CBS Low (0) ([2]; 2-marker CBS (IL-18BP, ANG-2)): 11.4 mo
- mOS, high CBS score (1-2) ([2]; 2-marker CBS (IL-18BP, ANG-2)): 17.5 months
- mOS, low CBS score (0) ([2]; 2-marker CBS (IL-18BP, ANG-2)): 11.4 months
- mOS, CBS High (3-5) [2, 5]: 17.4 mo
- mOS, CBS Low (0-2) [2, 5]: 15.0 mo
- mOS, high CBS score (3-5) [2, 5]: 17.4 months
- MST (median OS), FGF-21 High ([2]; baseline FGF-21 high, cutoff quantile 0.5 (median)): 19.5
- MST (median OS), FGF-21 Low ([2]; baseline FGF-21 low, cutoff quantile 0.5 (median)): 15.3
- MST (median OS), ICAM-1 High ([2]; baseline ICAM-1 high, cutoff quantile 0.5 (median)): 18.5
- MST (median OS), ICAM-1 Low ([2]; baseline ICAM-1 low, cutoff quantile 0.5 (median)): 13.3
- MST (median OS), M-CSF High ([2]; baseline M-CSF high, cutoff quantile 0.5 (median)): 15.4
- MST (median OS), M-CSF Low ([2]; baseline M-CSF low, cutoff quantile 0.5 (median)): 17.2
- HR (95% CI) OS, FGF-21 low and high groups ([2]; cutoff quantile 0.5 (median)): 0.741
- HR (95% CI) OS, ICAM-1 low and high groups ([2]; cutoff quantile 0.5 (median)): 0.66
- HR (95% CI) OS, M-CSF low and high groups ([2]; cutoff quantile 0.5 (median)): 1.146
- HR (95% CI), baseline FGF-21 with OS ([2]; univariate Cox regression, HR per standard deviation of baseline serum FGF-21): 0.996
- HR (95% CI), baseline ICAM-1 with OS ([2]; univariate Cox regression, HR per standard deviation of baseline serum ICAM-1): 1.017
- HR (95% CI), baseline M-CSF with OS ([2]; univariate Cox regression, HR per standard deviation of baseline serum M-CSF): 1.366
- ORR, CBS High (1-2) ([3]; 2-marker CBS (IL-18BP, ANG-2)): 6.9%
- ORR, CBS Low (0) ([3]; 2-marker CBS (IL-18BP, ANG-2)): 0.0%
- ORR, CBS High (3-5) [3, 4]: 5.0%
- ORR, CBS Low (0-2) [3, 4]: 4.2%
- ORR, CBS High (3-5) [3, 5]: 5.3%
- ORR, CBS Low (0-2) [3, 5]: 4.0%
